Entries after “also recorded” stand apart in the source; their conditions may differ. Like-named read-outs stand apart in the source and are kept apart here.
Key:
[1] = target: T1, pre-formed Aβ (1-40) amyloid fibrils (Homo sapiens, UniProt P05067); test: Thioflavin T fluorometry assay of dissolution of pre-formed Aβ (1-40) amyloid fibrils; format: biochemical; settings: 25 μM fibrillized Aβ, 4 day incubation
T1 construct: 25 μM of Aβ (1-40)(Bachem Inc., Torrance, Calif., USA; Lot #WM365); purchased Bachem Inc., Torrance, Calif., USA
T1 sequence (P05067 672-711 limits assumed): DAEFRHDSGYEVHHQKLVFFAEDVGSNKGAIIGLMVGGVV
Procedure: (§1) To assess the effects of each compound on Aβ (1-40) fibril formation, 50 μl aliquots were taken from each tube for analysis at 1 hr, 1 day, 3 days, and 1 week. For each determination described above, following each incubation period, 50 μl of Aβ+/−test compounds were added to 1.2 ml of 100 μM Thioflavin T (Sigma Chemical Co., St. Louis, Mo.) in 50 mM NaPO4 (pH 6.0). […] Fluorescence emission at 482 nm was measured on a Turner instrument-model 450 fluorometer at an excitation wavelength of 450 nm. For each determination, the fluorometer was calibrated by zeroing in the presence of the Thioflavin T reagent alone, and by seting the 50 ng/ml riboflavin (Sigma Chemical Co., St. Louis, Mo.) in the Thioflavin T reagent to 1800 fluorescence units. All fluorescence determinations were based on these references and any fluorescence given off by any of the compounds in the presence of the Thioflavin T reagent was always subtracted from all pertinent readings.
For this study, 1 mg of Aβ (1-40) (Bachem Inc., Torrance, Calif., USA; Lot #WM365) was dissolved in 1.0 ml of double distilled water (1 mg/ml solution) and then incubated at 37° C. for 1 week. 25 μM of fibrillized Aβ was then incubated at 37° C. in the presence or absence of glucose pentasulfate at concentrations of 1.25 mM, 0.63 mM, 0.31 mM and 0.16 mM containing 150 mM Tris HCl, 10 mM NaCl, pH 7.0. Following a 4 day incubation, 50 μl aliquots were added to 1.2 ml of 100 μM Thioflavin T (Sigma Chemical Co., St. Louis, Mo.) in 50 mM NaPO4 (pH 6.0) for fluorometry readings as described in section 4.1.

Aβ-heparin binding = target: T2, Aβ-heparin binding (Homo sapiens, UniProt P05067); test: Solid phase binding immunoassay, binding of Aβ to substrate bound heparin; settings: 5 μM Aβ 1-40
T2 construct: 25 μM of Aβ (1-40)(Bachem Inc., Torrance, Calif., USA; Lot #WM365); purchased Bachem Inc., Torrance, Calif., USA
T2 sequence (P05067 672-711 limits assumed): as above
Procedure: (§2) 12 μg of heparin (molecular weight=5,000; obtained from the Sigma Chemical Company, St. Louis, Mo., USA) or heparan sulfate (molecular weight=˜70,000; obtained from Seikagaku America, Rockville, Md.) in 80 μl of Tris-buffered saline containing 100 mM Tris-HCl, 50 mM NaCl, 3 mM NaN3, pH 9.0 (TBS) was allowed to bind overnight at 4° C. to microtiter wells (Nunc plates, Maxisorb). The next day all of the microtiter wells were blocked for 2 hours by incubating with 300 μl of TBS with 0.05% Tween-20 (TTBS) plus 1% bovine serum albumin (BSA) (obtained from the Sigma Chemical Company, St. Louis, Mo., USA). Then, 100 μl of 5 μM Aβ 1-40 (Bachem Inc., Torrance, Calif., USA; Lot #WM365) in TTBS containing 0.05% albumin in the presence or absence of glucose pentasulfate at concentrations of 2.5 mM, 0.83 mM, 0.28 mM and 0.093 mM were placed in wells (in triplicate) containing substrate bound perlecan or blank, and allowed to bind overnight at 4° C. The next day, the wells were rinsed once with TTBS, and then probed for 45 minutes with 100 μl of anti-6E10 (Senetek, Maryland Heights, Mo.)(which recognizes Aβ 1-17) diluted 1:1000 with TTBS. This was followed by rinsing once with TTBS and probed for 45 minutes with biotinylated goat-anti mouse (diluted 1:1000) containing streptavidin-peroxidase or anti-biotin-peroxidase (1:500 dilution of a 2 μg/ml solution) (Sigma Chemical Co., St. Louis, Mo.) in TTBS containing 0.1% BSA. The wells were then rinsed 3 times with TTBS and 100 μl of a substrate solution (OPD-Sigma Fast from Sigma Chemical Co., St. Louis, Mo.) was added to each well and allowed to develop for 5 minutes or until a significant color change was observed. The reaction was stopped with 50 μl of 4N H2SO4 and read on a Model 450 microplate reader (Biorad, Hercules, Calif., USA) at 490 nm.

[2] = target: T3, Aβ-heparan sulfate binding (Homo sapiens, UniProt P05067); test: Solid phase binding immunoassay, Aβ-heparan sulfate binding; settings: 2.5 to 0.093 mM; data not shown
T3 construct: 25 μM of Aβ (1-40)(Bachem Inc., Torrance, Calif., USA; Lot #WM365); purchased Bachem Inc., Torrance, Calif., USA
T3 sequence (P05067 672-711 limits assumed): as above
Procedure: as §2, with “This was followed by rinsing once with TTBS and probed for 45 minutes with biotinylated goat-anti mouse (diluted 1:1000) containing streptavidin-peroxidase or anti-biotin-peroxidase (1:500 dilution of a 2 μg/ml solution) (Sigma Chemical Co., St. Louis, Mo.) in TTBS containing 0.1% BSA. The wells were then rinsed 3 times with TTBS and 100 μl of a substrate solution (OPD-Sigma Fast from Sigma Chemical Co., St. Louis, Mo.) was added to each well and allowed to develop for 5 minutes or until a significant color change was observed.” left out

Aβ (1-40) = target: T4, Aβ (1-40) (Homo sapiens, UniProt P05067); test: Thioflavin T fluorometry assay of Aβ (1-40) amyloid fibril formation; format: biochemical; settings: for effect on Aβ (1-40) amyloid fibril formation (in words): 1.25 mM compound (1:50 M ratio), 1-week incubation
T4 construct: 25 μM of Aβ (1-40)(Bachem Inc., Torrance, Calif., USA; Lot #WM365); purchased Bachem Inc., Torrance, Calif., USA
T4 sequence (P05067 672-711 limits assumed): as above
Source text: A previously described method of measuring amyloid fibril formation utilizing Thioflavin T fluorometry (H Naiki et al, Lab. Invest. 65:104-110, 1991; H Levine III, Protein Sci. 2:404-410, 1993; H Levine III, Amyloid: Int. J. Exp. Clin. Invest. 2:1-6, 1995; H Naiki and K. Nakakuki, Lab. Invest. 74:374-383, 1996) was employed initially to identify potential therapeutic compounds capable of inhibiting Aβ amyloid fibril formation. Using this sensitive assay, any decreases or increases in fluorescence were previously shown to correlate with a decrease or increase in the amount of amyloid fibrils (H Naiki et al, Lab. Invest. 65:104-110, 1991; H Levine III, Protein Sci. 2:404-410, 1993; H Levine III, Amyloid: Int. J. Exp. Clin. Invest. 2:1-6, 1995; H Naiki and K. Nakakuki, Lab. Invest. 74:374-383, 1996), allowing one to determine the identification and extent of potential inhibitors and/or enhancers of amyloid fibril formation.
In an initial set of studies, the effects of various compounds on Aβ (1-40) fibrillogenesis was assessed. For these initial studies, 25 μM of Aβ (1-40)(Bachem Inc., Torrance, Calif., USA; Lot #WM365) was incubated in microcentrifuge tubes at 37° C. for 1 week (in triplicate), either alone, or in the presence of 1.25 mM (ie. 1:50 M ratio of Aβ:test compound) of various commercially available compounds (described below) in 150 mM Tris HCl, 10 mM NaCl, pH 7.0 (TBS). The compounds tested included glucose pentasulfate (PTI-48579, potassium salt; molecular weight=771), mannose pentasulfate (PTI-07499, potassium salt; molecular weight=771), methyl alpha-D-glucopyranoside 2,3,4,6-tetrasulfate (PTI-20049, potassium salt; molecular weight=667), methyl alpha-D-mannopyranoside 2,3,4,6-tetrasulfate (PTI-20814, potassium salt; molecular weight=667), sucrose heptasulfate (PTI-70936, potassium salt; molecular weight=1169), sucrose hexasulfate (PTI-70946, potassium salt; molecular weight=1052), and sucrose octasulfate (PTI-70011, potassium salt; molecular weight=1288).
as §1
For all fibrillogenesis studies utilizing Thioflavin T fluorometry, comparisons of Aβ in the presence or absence of test compounds were based on paired Student's t tests with data shown as mean+/−standard deviation. Significance was reported at the 95% (p<0.05), 99% (p<0.01) and 99.9% (p<0.001) confidence levels.
In this study, the dose-dependent effects of glucose pentasulfate (PTI-48579) on Aβ (1-40) fibrillogenesis was determined using the Thioflavin T fluorometry assay. 25 μM of Aβ (1-40) (Bachem Inc., Torrance, Calif., USA; Lot #WM365) was incubated in microcentrifuge tubes at 37° C. for 1 week (in triplicate), either alone, or in the presence of 1.25 mM (ie. 1:50 M ratio of Aβ:PTI-48579), 0.41 mM, 0.138 mM and 0.046 mM of glucose pentasulfate in 150 mM Tris HCl, 10 mM NaCl, pH 7.0 (TBS). 50 μl aliquots were taken from each tube for analysis at 1 hr, 1 day, 3 days, and 1 week using Thioflavin T fluorometry as described in section 4.1. […]

[3] = target: T5, human islet amyloid polypeptide (Homo sapiens, UniProt P10997); test: Thioflavin T fluorometry assay of islet amyloid polypeptide (amylin) fibrils; format: biochemical; settings: 1.25 mM
T5 construct: consists of a 37 amino acid protein known as islet amyloid polypeptide or amylin; purchased Bachem Inc, Torrance, Calif., USA
T5 sequence (P10997 34-70 limits assumed): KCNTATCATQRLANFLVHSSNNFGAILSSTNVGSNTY
Procedure: as §1
For this study, the method of Thioflavin T fluorometry as described above was used. Briefly, 25 μM of human islet amyloid polypeptide (Bachem Inc, Torrance, Calif., USA, Lot # WL934) was incubated in microcentrifuge tubes at 37° C. for 1 week (in triplicate), either alone, or in the presence of 1.25 mM glucose pentasulfate (PTI-48579; molecular weight=771) or mannose pentasulfate (PTI-07499; molecular weight=771). To assess the effects of glucose pentasulfate and mannose pentasulfate on islet amyloid polypeptide fibrillogenesis, 50 μl aliquots were taken from each tube for analysis at 1 hr, 1 day, 2 days, 3 days, 4 days and 1 week. For each determination described above, following each incubation period, 50 μl aliquots of islet amyloid polypeptide+/−glucose pentasulfate or mannose pentasulfate were added to 1.2 ml of 100 μM Thioflavin T (Sigma Chemical Co., St. Louis, Mo.) in 50 mM NaPO4 (pH 6.0) for fluorometry readings as described in section 4.1.

Molecule: O=C[C@H](OS(=O)(=O)O)[C@@H](OS(=O)(=O)O)[C@H](OS(=O)(=O)O)[C@@H](COS(=O)(=O)O)OS(=O)(=O)O [PTI-48579, glucose pentasulfate]
- dissolution of pre-formed Aβ amyloid fibrils ([1]; 0.16 mM): 23%
- dissolution of pre-formed Aβ amyloid fibrils ([1]; 0.31 mM): 31%
- dissolution of pre-formed Aβ amyloid fibrils ([1]; 0.63 mM): 47%
- dissolution of pre-formed Aβ amyloid fibrils ([1]; 1.25 mM): 60%
- inhibition at 93 µM (Aβ-heparin binding; 0.093 mM): 45%
- inhibition at 280 µM (Aβ-heparin binding; 0.28 mM): 74%
- inhibition at 830 µM (Aβ-heparin binding; 0.83 mM): 92%
- inhibition at 2500 µM (Aβ-heparin binding; 2.5 mM): 78%
- inhibition of Aβ-heparan sulfate binding (in words) [2]: significant dose-dependent inhibition
- effect on Aβ (1-40) amyloid fibril formation (in words) (Aβ (1-40); Example 1, 25 μM Aβ (1-40)): inhibited
- inhibition at 1250 µM (Aβ (1-40); Example 1, 25 μM Aβ (1-40), 1.25 mM compound, 37° C., 1 week, read-out: inhibition of Aβ (1-40) amyloid fibril formation): 80%
- inhibition of Aβ amyloid fibril formation (in words) (Aβ (1-40); Example 1, 1.25 mM compound, 3 days): Significant inhibition
- inhibition of Aβ fibril formation (in words) (Aβ (1-40); Example 2, 0.046 mM, 3 days): did not significantly inhibit
- inhibition of Aβ fibril formation (in words) (Aβ (1-40); Example 2, 0.138 mM, 3 days): did not significantly inhibit
- inhibition at 410 µM (Aβ (1-40); Example 2, 0.41 mM, 1 week, read-out: inhibition of Aβ (1-40) fibrillogenesis): 47%
- inhibition of Aβ fibril formation (in words) (Aβ (1-40); Example 2, 0.41 mM, 3 days): did not significantly inhibit
- inhibition at 1250 µM (Aβ (1-40); Example 2, 1.25 mM, 1 week, read-out: inhibition of Aβ (1-40) fibrillogenesis): 72%
- inhibition at 1250 µM (Aβ (1-40); Example 2, 1.25 mM, 3 days, read-out: inhibition of Aβ fibril formation): 39%
- dissolution of pre-formed amylin fibrils ([3]; 25 μM islet amyloid polypeptide, 1 week): 57%
- effect on islet amyloid polypeptide fibrillogenesis at earlier time points (in words) ([3]; 1 hour, 1 day and 2 days): initial increase

Molecule: O=C[C@@H](OS(=O)(=O)O)[C@@H](OS(=O)(=O)O)[C@H](OS(=O)(=O)O)[C@@H](COS(=O)(=O)O)OS(=O)(=O)O [mannose pentasulfate, reference compound]
- effect on Aβ (1-40) amyloid fibril formation (in words) (Aβ (1-40); Example 1, 25 μM Aβ (1-40)): ineffective inhibitors; also recorded: did not inhibit
- effect on islet amyloid polypeptide fibrillogenesis (in words) ([3]; all time points (1 hr to 1 week)): significant increase

Molecule: CO[C@H]1O[C@H](COS(=O)(=O)O)[C@@H](OS(=O)(=O)O)[C@H](OS(=O)(=O)O)[C@H]1OS(=O)(=O)O [methyl alpha-D-glucopyranoside 2,3,4,6-tetrasulfate, reference compound]
- effect on Aβ (1-40) amyloid fibril formation (in words) (Aβ (1-40); Example 1, 25 μM Aβ (1-40)): ineffective inhibitors

Molecule: CO[C@H]1O[C@H](COS(=O)(=O)O)[C@@H](OS(=O)(=O)O)[C@H](OS(=O)(=O)O)[C@@H]1OS(=O)(=O)O [methyl alpha-D-mannopyranoside 2,3,4,6-tetrasulfate, reference compound]
- effect on Aβ (1-40) amyloid fibril formation (in words) (Aβ (1-40); Example 1, 25 μM Aβ (1-40)): ineffective inhibitors

Molecule: O=S(=O)(O)OC[C@H]1O[C@@](COS(=O)(=O)O)(O[C@H]2O[C@H](COS(=O)(=O)O)[C@@H](OS(=O)(=O)O)[C@H](OS(=O)(=O)O)[C@H]2OS(=O)(=O)O)[C@@H](OS(=O)(=O)O)[C@@H]1OS(=O)(=O)O [sucrose octasulfate, reference compound]
- effect on Aβ (1-40) amyloid fibril formation (in words) (Aβ (1-40); Example 1, 25 μM Aβ (1-40)): ineffective inhibitors

Molecule: sucrose heptasulfate [reference compound]
- effect on Aβ (1-40) amyloid fibril formation (in words) (Aβ (1-40); Example 1, 25 μM Aβ (1-40)): ineffective inhibitors

Molecule: sucrose hexasulfate [reference compound]
- effect on Aβ (1-40) amyloid fibril formation (in words) (Aβ (1-40); Example 1, 25 μM Aβ (1-40)): ineffective inhibitors
